Experiments:
[1] = Stability in Balb/cCrSlc mouse plasma assessed as parent compound remaining up to 120 mins by HPLC analysis; format: ADME, cell-free; settings: read-out: Stability
[2] = Acid dissociation constant, pKa of compound at 20 ug/ml at pH 5.6 to 6.8 by micro-scale spectrophotometric method; format: physicochemical
[3] = Apparent permeability from basolateral to apical side in human Caco2 cells at 1 uM after 1 to 2 hrs by LC-MS analysis; format: ADME, cell-based; settings: Caco-2
[4] = biological target: T1, Prostaglandin G/H synthase 2 (Ovis aries, UniProt P79208); assay: Inhibition of heme catalyzed hydroperoxidase activity of ovine COX-2 using arachidonic acid as substrate preincubated for 5 mins followed by substrate addition measured after 5 mins by TMPD oxidation based colorimetric assay
T1 sequence (P79208 whole entry): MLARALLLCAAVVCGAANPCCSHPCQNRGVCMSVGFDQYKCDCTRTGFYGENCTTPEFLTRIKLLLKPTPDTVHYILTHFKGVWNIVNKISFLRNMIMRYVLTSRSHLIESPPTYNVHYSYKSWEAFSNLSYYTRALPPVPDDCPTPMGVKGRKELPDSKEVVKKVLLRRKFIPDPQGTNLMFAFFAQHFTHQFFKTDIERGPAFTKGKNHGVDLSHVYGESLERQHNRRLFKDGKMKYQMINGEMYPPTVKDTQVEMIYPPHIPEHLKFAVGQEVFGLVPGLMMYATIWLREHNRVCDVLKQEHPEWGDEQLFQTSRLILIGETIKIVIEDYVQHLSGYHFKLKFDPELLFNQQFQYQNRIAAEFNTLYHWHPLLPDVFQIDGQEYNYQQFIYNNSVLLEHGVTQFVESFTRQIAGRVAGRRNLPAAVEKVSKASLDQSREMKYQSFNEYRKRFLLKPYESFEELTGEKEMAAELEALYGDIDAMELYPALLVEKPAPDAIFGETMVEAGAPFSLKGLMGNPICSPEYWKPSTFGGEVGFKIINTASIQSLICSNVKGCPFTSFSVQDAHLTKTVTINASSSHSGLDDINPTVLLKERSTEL

[5] = Apparent permeability from basolateral to apical side in human Caco2 cells at 10 uM after 1 to 2 hrs by LC-MS analysis; format: ADME, cell-based; settings: Caco-2
[6] = Efflux ratio of permeability from basolateral to apical side over apical to basolateral side in human Caco2 cells at 10 uM after 1 to 2 hrs by LC-MS analysis; format: ADME, cell-based; settings: Caco-2
[7] = Apparent permeability from apical to basolateral side in human Caco2 cells at 10 uM after 1 to 2 hrs by LC-MS analysis; format: ADME, cell-based; settings: Caco-2
[8] = Apparent permeability from apical to basolateral side in human Caco2 cells at 1 uM after 1 to 2 hrs by LC-MS analysis; format: ADME, cell-based; settings: Caco-2
[9] = Efflux ratio of permeability from basolateral to apical side over apical to basolateral side in human Caco2 cells at 1 uM after 1 to 2 hrs by LC-MS analysis; format: ADME, cell-based; settings: Caco-2
[10] = biological target: T2, Prostaglandin G/H synthase 1 (Ovis aries, UniProt P05979); assay: Inhibition of heme catalyzed hydroperoxidase activity of ovine COX-1 using arachidonic acid as substrate preincubated for 5 mins followed by substrate addition measured after 5 mins by TMPD oxidation based colorimetric assay
T2 sequence (P05979 whole entry): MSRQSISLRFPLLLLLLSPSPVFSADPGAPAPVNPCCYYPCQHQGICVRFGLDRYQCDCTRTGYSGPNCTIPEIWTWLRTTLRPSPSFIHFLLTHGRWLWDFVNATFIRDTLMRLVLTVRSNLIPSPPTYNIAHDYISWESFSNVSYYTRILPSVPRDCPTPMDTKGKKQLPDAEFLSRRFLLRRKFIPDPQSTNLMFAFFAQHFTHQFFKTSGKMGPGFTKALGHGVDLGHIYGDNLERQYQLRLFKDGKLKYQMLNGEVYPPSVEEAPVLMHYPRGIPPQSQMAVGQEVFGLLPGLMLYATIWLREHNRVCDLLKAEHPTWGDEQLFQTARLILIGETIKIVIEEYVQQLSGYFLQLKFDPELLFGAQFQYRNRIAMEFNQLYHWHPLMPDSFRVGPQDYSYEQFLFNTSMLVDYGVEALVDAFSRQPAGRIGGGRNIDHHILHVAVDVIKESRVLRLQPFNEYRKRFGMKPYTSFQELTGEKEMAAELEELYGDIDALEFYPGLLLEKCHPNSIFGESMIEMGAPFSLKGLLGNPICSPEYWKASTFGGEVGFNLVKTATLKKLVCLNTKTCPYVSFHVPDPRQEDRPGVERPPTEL

[11] = Octanol-water partition coefficient, log P of compound at pH 7.4 by reverse phase HPLC analysis; format: physicochemical

| remaining at 2 h [1] [%] | pKa [2] | Papp B→A at 1 µM [3] [×10⁻⁶ cm/s] | IC50 [4] [µM] | Papp B→A at 10 µM [5] [×10⁻⁶ cm/s] | efflux ratio at 10 µM [6] | Papp A→B at 10 µM [7] [×10⁻⁶ cm/s] | Papp A→B at 1 µM [8] [×10⁻⁶ cm/s] | efflux ratio at 1 µM [9] | IC50 [10] [µM] | logP [11] | SMILES |
| --- | --- | --- | --- | --- | --- | --- | --- | --- | --- | --- | --- |
| 98 | 6.57 | – | – | – | – | – | – | – | – | – | CS(=O)(=O)Nc1ccc([N+](=O)[O-])cc1Oc1ccccc1 [NIMESULIDE] |
| 98.5 | 7.01 | – | – | – | – | – | – | – | – | – | COc1ccc(Oc2cc([N+](=O)[O-])ccc2NS(C)(=O)=O)cc1 |
| 98.4 | 6.74 | 26.4 | > 100 | 18 | 0.67 | 27 | 31.4 | 0.84 | > 100 | 2.72 | CS(=O)(=O)Nc1ccc([N+](=O)[O-])cc1Oc1cccc(I)c1 |
| 95 | 6.57 | 21.9 | > 100 | 26.4 | 0.78 | 33.8 | 30.1 | 0.72 | > 100 | 2.11 | CS(=O)(=O)Nc1ccc([N+](=O)[O-])cc1Oc1ccccc1I |
| 97.6 | 7.07 | – | – | – | – | – | – | – | – | – | COc1ccccc1Oc1cc([N+](=O)[O-])ccc1NS(C)(=O)=O |
| 99.3 | 6.87 | – | – | – | – | – | – | – | – | – | COc1cccc(Oc2cc([N+](=O)[O-])ccc2NS(C)(=O)=O)c1 |
| 97.5 | 6.89 | 18.3 | 0.47 | 13.4 | 0.78 | 17.1 | 40.5 | 0.45 | > 100 | 2.77 | CS(=O)(=O)Nc1ccc([N+](=O)[O-])cc1Oc1ccc(I)cc1 |
